Measured values as given in patent publication US12104168B2, “Cell culture medium” (Agency For Science, Technology And Research, priority 2018, dated 2024).

Tested on: hepSC
Experiment: Dasatinib withdrawal or replacement in hSC media, maintenance of hepSC stem cell state
Settings: for survival of hepatic stem cells: ABL kinase inhibitor together with SRC inhibition, replacing Dasatinib; for rescue of phenotype after subculturing / rescue of cell phenotype: added instead of Dasatinib; for rescue of phenotype after subculturing: 48 hr after subculturing; for rescue of cell phenotype: 6 days after withdrawal; for rescue of cell morphology changes: replacement of Dasatinib with the inhibitor, 48 hrs

| Compound | survival of hepatic stem cells | rescue of phenotype after subculturing | rescue of cell phenotype | rescue of cell morphology changes |
| --- | --- | --- | --- | --- |
| Cc1ccc(NC(=O)c2ccc(CN3CCN(C)CC3)cc2)cc1Nc1nccc(-c2cccnc2)n1 [Imatinib] | seems to improved survival of hepatic stem cells | did not rescue the phenotype | did not rescue the cell phenotype | did not rescue cell morphology changes |
| Cc1cn(-c2cc(NC(=O)c3ccc(C)c(Nc4nccc(-c5cccnc5)n4)c3)cc(C(F)(F)F)c2)cn1 [Nilotinib] | seems to improved survival of hepatic stem cells | did not rescue the phenotype | did not rescue the cell phenotype | did not rescue cell morphology changes |
